Experimental findings from patent US8772253B2, “Aureolic acid derivatives, the method for preparation thereof and the uses” (Entrechem, S.L., priority 2009, dated 2014) are described below.

Holding throughout (type): cell-based
For assay [1], the system named is A549 (human lung carcinoma). Put plainly: MTT cell proliferation (cytotoxicity) assay, A549. To be noted: read-out: IC50 or concentration required to achieve 50% growth inhibition compared to untreated cells, A549 (lung). As to the method:
(§1) MTM and CRM derivatives were assayed against a collection of tumor cell lines. Tumor cell lines were obtained from The American Type and Culture Collection (ATCC), and the lines were the following; A549 (human lung carcinoma); H116 (colon adenocarcinoma); PSN1 (pancreatic adenocarcinoma) and T98G (human glyoblastoma). Cells were cultured in medium RPM1 containing 2 mM glutamine, 50 IU/ml penicillin and 50 μg/ml streptomycin. Culture medium for cell lines A549 and H116 was supplemeted with 5% FBS and culture medium for cell lines PSN1 and T98G was supplemented with 10% FBS.
(§2) The evaluation of compound cytotoxicity was carried out by determining cell viability using an assay based on metabolic reduction of 3-(4,5-dimethyl-2-thiazolyl)-2,5-diphenyltetrazolium bromide (MTT; Sigma Chemical Co. St. Louis, Mo.). This reduction reaction is carried out by mitochondrion succinate dehydrogenase of viable cells and produce formazan, a chromogenic compound that can be quantified by spectrophotometry.
(§3) The assay was carried out following the procedure described by Mosmann (J. Immunol. Methods 1983, 65, 55). Tumor cells were incubated in 96 well microtitre plates containing 200 μl of complete medium (with 4×10^3 cells/well for A549 and 6×10^3 cells/well for H116, PSN1 and T98G). Serial dilutions in DMSO of the test compounds (10 μg/ml, 5 μg/ml, 1 μg/ml, 0.5 μg/ml, 0.1 μg/ml, 0.05 μg/ml, 0.01 μg/ml, y 0.005 μg/ml) were added and after 2 days incubation (at 37° C., 5% CO2 and high relative humidity), 50 μl of MTT (1 mg/ml in PBS) was added to each well. The plates were incubated at 37° C. for 2 hours and the reduction product (formazan) was resuspended in 100 μl of DMSO and quantified at 490 nm with a spectrophotometer.

Assay [2] deals with H116 (colon adenocarcinoma). The assay is described as follows: MTT cell proliferation (cytotoxicity) assay, H116. To be noted: read-out: IC50 or concentration required to achieve 50% growth inhibition compared to untreated cells, H116 (colon). As to the method: as §1, §2, §3
Assay [3] has as its system PSN1 (pancreatic adenocarcinoma). Put plainly: MTT cell proliferation (cytotoxicity) assay, PSN1. To be noted: read-out: IC50 or concentration required to achieve 50% growth inhibition compared to untreated cells, PSN1 (pancreatic adenocarcinoma). As to the method:
as §1, §2, §3

Assay [4] has as its system T98G (human glyoblastoma). Put plainly: MTT cell proliferation (cytotoxicity) assay, T98G. To be noted: read-out: IC50 or concentration required to achieve 50% growth inhibition compared to untreated cells, T98G (glyoblastoma). As to the method:
as §1, §2, §3

[5] abbreviates: A549 cells, MTT, 2 days incubation, triplicate.
[6] abbreviates: H116 cells, MTT, 2 days incubation, triplicate.
[7] abbreviates: PSN1 cells, MTT, 2 days incubation, triplicate, read-out: IC50 or concentration required to achieve 50% growth inhibition compared to untreated cells, PSN1 (prostate).
[8] abbreviates: T98G cells, MTT, 2 days incubation, triplicate.
Where [9] appears, read: Homo sapiens, 48 h, A549 cells, MTT, 2 days incubation, triplicate.
[10] abbreviates: 48 h, H116 cells, MTT, 2 days incubation, triplicate.
[11] abbreviates: Homo sapiens, 48 h, PSN1 cells, MTT, 2 days incubation, triplicate, read-out: IC50 or concentration required to achieve 50% growth inhibition compared to untreated cells, PSN1 (prostate).
Where [12] appears, read: Homo sapiens, 48 h, T98G cells, MTT, 2 days incubation, triplicate.

Like-named read-outs stand apart in the source and are kept apart here.

On to “3D-demycarosyl-3D-β-D-digitoxosyl-MTM [reference compound]”, for which the IC50 in assay [1] (setting [5]) stood at 46.6 nM; in assay [2] (setting [6]) it was 46.6 nM; in assay [3] (setting [7]), 46.6 nM; in assay [4] (setting [8]), 69 nM.

With “3D-demycarosyl-MTM-SK [reference compound]”, the IC50 in assay [1] (setting [5]) was 1000 nM; in assay [2] (setting [6]) it was 500 nM; in assay [3] (setting [7]), 1000 nM; in assay [4] (setting [8]) it was more than 1000 nM.

For the compound `CO[C@H](C(=O)C(C)=O)[C@@H]1Cc2cc3cc(O[C@H]4C[C@@H](O[C@H]5C[C@@H](O)[C@H](O)C(C)O5)[C@H](O)C(C)O4)c(C)c(O)c3c(O)c2C(=O)[C@H]1O[C@H]1C[C@@H](O[C@H]2C[C@@H](O[C@H]3C[C@@H](O)[C@H](O)C(C)O3)[C@@H](O)C(C)O2)[C@H](O)C(C)O1` (stereo partly drawn) [(IX)], the IC50 in assay [1] (Homo sapiens, A549, 48 h) was 5 nM; in assay [2] (H116, 48 h) it was 5 nM; in assay [3] (Homo sapiens, PSN1, 48 h), 5 nM; in assay [4] (Homo sapiens, T98G, 48 h), 10 nM.

For the compound `C/C=C/C(=O)O[C@@H]1C[C@H](O[C@@H]2C[C@H](Oc3cc4cc5c(c(O)c4c(O)c3C)C(=O)[C@@H](O[C@H]3C[C@@H](O[C@H]4C[C@@H](O[C@H]6C[C@](C)(O)[C@H](O)C(C)O6)[C@@H](O)C(C)O4)[C@H](O)C(C)O3)[C@H]([C@H](OC)C(=O)[C@@H](O)[C@@H](C)O)C5)OC(C)[C@H]2O)OC(C)[C@H]1O` (stereo partly drawn) [(LI)], the IC50 was found to be 43 nM in assay [1] (setting [9]), 43 nM in assay [2] (setting [10]), 43 nM in assay [3] (setting [11]) and 87 nM in assay [4] (setting [12]).

Take `CO[C@H](C(=O)[C@@H](O)[C@@H](C)OC(=O)CCC(=O)O)[C@@H]1Cc2cc3cc(O[C@H]4C[C@@H](O[C@H]5C[C@@H](O)[C@H](O)C(C)O5)[C@H](O)C(C)O4)c(C)c(O)c3c(O)c2C(=O)[C@H]1O[C@H]1C[C@@H](O[C@H]2C[C@@H](O[C@H]3C[C@](C)(O)[C@H](O)C(C)O3)[C@@H](O)C(C)O2)[C@H](O)C(C)O1` (stereo partly drawn) [(LII)]: the IC50 in assay [1] (setting [9]) came to 420 nM; in assay [2] (setting [10]) it was 420 nM; in assay [3] (setting [11]), 420 nM; in assay [4] (setting [12]), 844 nM.

As to `CO[C@H](C(=O)[C@@H](O)[C@@H](C)O)[C@@H]1Cc2cc3cc(O[C@H]4C[C@@H](O[C@H]5C[C@@H](O)[C@H](OC(=O)CCC(=O)O)C(C)O5)[C@H](O)C(C)O4)c(C)c(O)c3c(O)c2C(=O)[C@H]1O[C@H]1C[C@@H](O[C@H]2C[C@@H](O[C@H]3C[C@](C)(O)[C@H](O)C(C)O3)[C@@H](O)C(C)O2)[C@H](O)C(C)O1` (stereo partly drawn) [(LIII)], the IC50 in assay [1] (setting [9]) came to 4210 nM; in assay [2] (setting [10]), 844 nM; in assay [3] (setting [11]) it was 633 nM; in assay [4] (setting [12]), 844 nM.

For `CO[C@H](C(=O)[C@@H](O)[C@@H](C)O)[C@@H]1Cc2cc3cc(O[C@H]4C[C@@H](O[C@H]5C[C@@H](OC(=O)CCC(=O)O)[C@H](O)C(C)O5)[C@H](O)C(C)O4)c(C)c(O)c3c(O)c2C(=O)[C@H]1O[C@H]1C[C@@H](O[C@H]2C[C@@H](O[C@H]3C[C@](C)(O)[C@H](O)C(C)O3)[C@@H](O)C(C)O2)[C@H](O)C(C)O1` (stereo partly drawn) [(LV)], the IC50 came out at 4210 nM in assay [1] (setting [9]), 4210 nM in assay [2] (setting [10]), 422 nM in assay [3] (setting [11]) and 4210 nM in assay [4] (setting [12]).

In the case of `CO[C@@H]([C@@H]1Cc2cc3cc(O[C@H]4C[C@@H](O[C@H]5C[C@@H](OC(C)=O)[C@H](O)C(C)O5)[C@H](O)C(C)O4)c(C)c(O)c3c(O)c2C(=O)[C@H]1O[C@H]1C[C@@H](O[C@H]2C[C@@H](O[C@H]3C[C@](C)(O)[C@H](O)C(C)O3)[C@@H](O)C(C)O2)[C@H](O)C(C)O1)[C@@H](O)C(C)=O` (stereo partly drawn) [(LXI)], the IC50 came out at 45 nM in assay [1] (setting [9]), 9 nM in assay [2] (setting [10]), 6.5 nM in assay [3] (setting [11]) and 45 nM in assay [4] (setting [12]).

For the compound `CO[C@@H]([C@@H]1Cc2cc3cc(O[C@H]4C[C@@H](O[C@H]5C[C@@H](O)[C@H](OC(C)=O)C(C)O5)[C@H](O)C(C)O4)c(C)c(O)c3c(O)c2C(=O)[C@H]1O[C@H]1C[C@@H](O[C@H]2C[C@@H](O[C@H]3C[C@](C)(O)[C@H](O)C(C)O3)[C@@H](O)C(C)O2)[C@H](O)C(C)O1)[C@@H](O)C(C)=O` (stereo partly drawn) [(LXIX)], the IC50 in assay [1] (setting [9]) worked out at 9 nM; in assay [2] (setting [10]), 9 nM; in assay [3] (setting [11]), 45 nM; in assay [4] (setting [12]) it was 4 nM.

Turning to `CO[C@@H]([C@@H]1Cc2cc3cc(O[C@H]4C[C@@H](O[C@H]5C[C@@H](O)[C@H](O)C(C)O5)[C@H](O)C(C)O4)c(C)c(O)c3c(O)c2C(=O)[C@H]1O[C@H]1C[C@@H](O[C@H]2C[C@@H](O[C@H]3C[C@@H](O)[C@H](O)C(C)O3)[C@@H](O)C(C)O2)[C@H](O)C(C)O1)[C@@H](O)C(C)=O` (stereo partly drawn) [(VII)], the IC50 in assay [1] (setting [9]) came out at 50 nM; in assay [2] (setting [10]) it was 10 nM; in assay [3] (setting [11]) it was 100 nM; in assay [4] (setting [12]), 300 nM.

For the compound `CO[C@H](C(=O)C(C)=O)[C@@H]1Cc2cc3cc(O[C@H]4C[C@@H](O[C@H]5C[C@@H](O)[C@H](O)C(C)O5)[C@H](O)C(C)O4)c(C)c(O)c3c(O)c2C(=O)[C@H]1O[C@H]1C[C@@H](O[C@H]2C[C@@H](O)[C@@H](O)C(C)O2)[C@H](O)C(C)O1` (stereo partly drawn) [(VIII)], the IC50 in assay [1] (setting [9]) turned out to be 50 nM; in assay [2] (setting [10]), 50 nM; in assay [3] (setting [11]) it was 100 nM; in assay [4] (setting [12]), 300 nM.

Turning to `CO[C@H](C(=O)[C@@H](O)[C@@H](C)O)[C@@H]1Cc2cc3cc(O[C@H]4C[C@@H](O[C@H]5C[C@@H](O)[C@H](O)C(C)O5)[C@H](O)C(C)O4)c(C)c(O)c3c(O)c2C(=O)[C@H]1O[C@H]1C[C@@H](O[C@H]2C[C@@H](O[C@H]3C[C@](C)(O)[C@H](OC(C)=O)C(C)O3)[C@@H](O)C(C)O2)[C@H](O)C(C)O1` (stereo partly drawn) [(XII)], the IC50 in assay [1] (setting [9]) was found to be 50 nM; in assay [2] (setting [10]) it was 10 nM; in assay [3] (setting [11]) it was 50 nM; in assay [4] (setting [12]), 300 nM.

Consider `CO[C@@H]([C@@H]1Cc2cc3cc(O[C@H]4C[C@@H](O[C@H]5C[C@@H](O)[C@H](O)C(C)O5)[C@H](O)C(C)O4)c(C)c(O)c3c(O)c2C(=O)[C@H]1O[C@H]1C[C@@H](O[C@H]2C[C@@H](O[C@H]3C[C@](C)(O)[C@H](O)C(C)O3)[C@@H](O)C(C)O2)[C@H](O)C(C)O1)[C@@H](O)C(C)=O` (stereo partly drawn) [(XIV)], for which the IC50 amounted to 50 nM in assay [1] (setting [9]), 10 nM in assay [2] (setting [10]), 50 nM in assay [3] (setting [11]) and 750 nM in assay [4] (setting [12]).

Consider `CCCC(=O)O[C@@H]1C[C@H](O[C@@H]2C[C@H](Oc3cc4cc5c(c(O)c4c(O)c3C)C(=O)[C@@H](O[C@H]3C[C@@H](O[C@H]4C[C@@H](O[C@H]6C[C@](C)(O)[C@H](O)C(C)O6)[C@@H](O)C(C)O4)[C@H](O)C(C)O3)[C@H]([C@H](OC)C(=O)[C@@H](O)[C@@H](C)O)C5)OC(C)[C@H]2O)OC(C)[C@H]1O` (stereo partly drawn) [(XLVI)], for which the IC50 stood at 433 nM in assay [1] (setting [9]), 43 nM in assay [2] (setting [10]), 43 nM in assay [3] (setting [11]) and 43 nM in assay [4] (setting [12]).

Turning to `CCCC(=O)O[C@H](C)[C@H](O)C(=O)[C@@H](OC)[C@@H]1Cc2cc3cc(O[C@H]4C[C@@H](O[C@H]5C[C@@H](O)[C@H](O)C(C)O5)[C@H](O)C(C)O4)c(C)c(O)c3c(O)c2C(=O)[C@H]1O[C@H]1C[C@@H](O[C@H]2C[C@@H](O[C@H]3C[C@](C)(O)[C@H](O)C(C)O3)[C@@H](O)C(C)O2)[C@H](O)C(C)O1` (stereo partly drawn) [(XXXI)], the IC50 in assay [1] (setting [9]), in assay [2] (setting [10]), in assay [3] (setting [11]) and in assay [4] (setting [12]) was 43 nM throughout.
